Source: PubChem BioAssay AID1419 (Emory University Molecular Libraries Screening Center, 2008)
Calls of active or inactive are those of the source. How the calls were made is not given here.

Test: blockers of an Epstein-Barr virus protein-peptide interaction – biochemical, fluorescence polarization, dose response (AID 1419)
Conditions: cell-free protein-peptide binding, 2 h; for fold change: measured here: P channel fold over control, at 54 µM

Row | SMILES | IC50 | fold change
1 | Cc1ccc(-c2nc(SCC(=O)Nc3ccccc3OC(F)F)c3c(C)c(C(=O)O)sc3n2)cc1 | 18.2 µM | 1.05
2 | O=C1C(=Cc2ccc(Br)o2)C(=O)c2ccccc21 | > 54 µM (inactive) | 1.09
3 | c1ccc(-c2cn3nc4c(nc3n2)CCCC4)cc1 | 4.56 µM | 2.57
4 | CC(=O)n1c(C=Nc2ccc(Cl)cc2)c(O)c2ccccc21 | 1.09 µM | 31.8
5 | CC(C)c1cc(=O)oc2c3c4c(cc12)CCCN4CCC3 | 1.88 µM | 5.95
6 | COc1ccc(N=C2S/C(=C\c3ccc(OCC(=O)O)cc3)C(=O)N2CCc2c[nH]c3ccccc23)cc1 | 1.88 µM | 1.05
7 | O=c1[nH]c(=O)n(Cc2ccccc2)c(O)c1/C=C1\C=Nc2ccccc21 | 2.18 µM | 6.67
8 | CCOc1cc(C=C2C(=O)c3ccccc3C2=O)ccc1OCC(=O)Nc1ccc(C)cc1 | 2.18 µM | 11.6
9 | N=c1oc2cc(O)ccc2cc1C(=O)Nc1nc2ccccc2s1 | 13 µM | 2.65
10 | Cc1cc2nc3c(=O)n(CCc4ccccc4)c(=O)[nH]c3nc2cc1N | < 0.42 µM | 115
11 | CCC1=NN2C(=N)/C(=C\c3ccc(OCc4cc(=O)n5nc(CC)sc5n4)c(OC)c3)C(=O)N=C2S1 | > 54 µM (inactive) | 1.08
12 | Cc1ccc(NC(=O)CN2C(=O)S/C(=C/c3ccc(O)c([N+](=O)[O-])c3)C2=O)cc1C | > 54 µM (inactive) | 0.99
13 | CC1CCCN(c2nc3ccccc3nc2C(C#N)S(=O)(=O)c2ccccc2)C1 (stereo unspecified) | > 54 µM (inactive) | 1.37
14 | CC1CCCCC1NC(=O)CN1C(=O)c2cccc(N)c2C1=O (stereo unspecified) | 2.35 µM | 2.47
15 | Nc1cccc2c1C(=O)N(CC(=O)NC13CC4CC(CC(C4)C1)C3)C2=O | 8.06 µM | 2.22
16 | O=C(Nc1ccc(-n2cnnn2)cc1)C1CCC1 | > 54 µM (inactive) | 0.983
17 | O=C(CSc1ccsc1[N+](=O)[O-])Nc1cccc(F)c1 | > 54 µM (inactive) | 1.11
18 | Cc1ccc(NC(=O)/C(C#N)=C(\N)C(Cl)(Cl)Cl)nc1 | 0.53 µM | 13
19 | Cc1ccc(/C=c2\sc3nc(-c4cccnc4)nn3c2=O)cc1 | > 54 µM (inactive) | 1.13
20 | COc1cc(/C=C2/C(=O)c3cccc([N+](=O)[O-])c3C2=O)c(Br)cc1O | > 54 µM (inactive) | 0.647
21 | O=C(N=Nc1ccc(NOC(=O)c2ccccc2Br)cc1)c1ccccc1O | > 54 µM (inactive) | 0.957

Row | SMILES | IC50 | fold change
22 | O=c1c(/C=N/Nc2ccccc2)c(Sc2nnnn2-c2ccccc2)nc2ccccn12 | 4.73 µM | 37.5
23 | O=C(c1ccco1)[C@@H]1[C@@H]2C(=O)N(c3ccc(F)cc3)C(=O)[C@@H]2C2c3ccccc3C=CN21 (stereo partly specified) | 6.26 µM | 2.53
24 | CC1=CC(C#N)(C#N)C(C#N)(C#N)C(c2ccccc2)N1 (stereo unspecified) | < 0.42 µM | 10
25 | Cc1c(O)c2c3c(cccc3c1O)C(=O)N(c1ccccc1)C2=O | 1.41 µM | 7.05
26 | CCc1ccc2nc3sc(C(=O)N4CCc5ccccc54)c(N)c3cc2c1 | < 0.42 µM | 16.6
27 | N#CC1=C(N)C(C#N)(C#N)C(c2cccnc2)C2CCCC=C12 (stereo unspecified) | 4.81 µM | 2.44
28 | COC(=O)C1=COC(C)C2CN3CCc4c([nH]c5cc(OC)c(OC)cc45)C3CC12 (stereo unspecified) | 8.76 µM | 2.6
29 | Cc1ccc2nc(SCC(=O)Nc3ccccc3N3CCOCC3)c(C#N)cc2c1 | > 54 µM (inactive) | 1.02
30 | COc1ccc(C2C(C(=O)c3cccs3)=C(O)C(=O)N2c2nnc(C)s2)cc1OC (stereo unspecified) | 3.11 µM | 10.8
31 | COc1ccc(C2C(C(=O)c3cccs3)=C(O)C(=O)N2c2nncs2)cc1 (stereo unspecified) | < 0.42 µM | 13
32 | COC(=O)c1cc(NC(=O)c2cccc(Cl)c2)c(=O)oc1/C=C/Nc1cc(C)cc(C)c1 | 4.37 µM | 22.8
33 | CCCCn1c(=O)[nH]c2nc3cc(N)ccc3nc2c1=O | < 0.42 µM | 110
34 | N#Cc1c(C#N)c(O)c2ccccc2c1O | 4.02 µM | 3.34
35 | CCN(CC)c1ccc(/C=c2\sc3nnc(-c4ccccc4Cl)n3c2=O)cc1 | 2.65 µM | 16.1
36 | COCCCNC(=O)c1ccc2c3c(onc13)-c1ccccc1C2=O | < 0.42 µM | 217
37 | Cc1cc(-c2ccc(N3CCOCC3)cc2)nc2ccccc12 |  | 2.8
38 | CCOC(=O)C1CCCN(c2nc3ccccc3nc2C(C#N)C(=O)NCc2ccccc2)C1 (stereo unspecified) | 8.82 µM | 2.73
39 | COc1ccc(/C=C2\SC(=O)N(CC(=O)NNC(=O)c3ccccc3O)C2=O)cc1 | > 54 µM (inactive) | 1.01
40 | Cn1c(=O)c2[nH]c(-c3ccccc3)c(O)c2n(C)c1=O | < 0.42 µM | 6.43
41 | COc1ccc(C(=O)c2sc3nc(C)cc(-c4cccs4)c3c2N)cc1OC | 16.5 µM | 7.43
42 | Cc1cc(Br)c2nc3c(c(C(=O)O)c2c1)CCCCC3 | > 54 µM (inactive) | 1.06

Row | SMILES | IC50 | fold change
43 | COc1ccccc1N1C(C)=CC(=C(C#N)c2nc3ccccc3s2)C=C1C | 9.03 µM | 27.7
44 | COc1ccc(Cn2c3ccc(OC)cc3c3nc4ccccc4nc32)cc1 | 3.27 µM | 3.38
45 | O=S(=O)(Nc1nc2ccccc2nc1-[n+]1cccc(N=C([O-])c2ccccc2Cl)c1)c1ccccc1 | 1.13 µM | 2.79
46 | CCN(CC)c1ccc(/C=c2/sc3nnc(-c4ccccc4C)n3c2=O)cc1 | 3.39 µM | 17.4
47 | Cn1c(SCC(=O)Nc2ccc3nc(SCC(=O)N4CCCC4)sc3c2)nnc1-c1ccccc1 | > 54 µM (inactive) | 1.08
48 | Nc1ccc2c3c(cccc13)C(=O)N(c1ccccc1)C2=O | < 0.42 µM | 200
49 | Cc1ccc(N2C(=O)[C@@H]3[C@H](C2=O)C2c4ccccc4C=CN2[C@@H]3C(=O)c2ccco2)cc1 (stereo partly specified) | 5.71 µM | 2.76
50 | COC(=O)CCCCC1SCC(NC(=O)c2ccccc2)C1Cl (stereo unspecified) | 10.8 µM | 2.16
51 | CC(=O)Nc1ccc(N2CCc3c(C)c(C#N)c4nc5ccccc5n4c32)cc1 | > 54 µM (inactive) | 3.39
52 | O=[N+]([O-])c1ccc(O)c(N=Cc2sc3ccccc3c2O)c1 | > 54 µM (inactive) | 1.45
53 | O=C(C1=NN(c2ccccc2)C2C(=O)N(c3ccccc3)C(=O)C12)c1ccccc1 (stereo unspecified) | 6.24 µM | 3.88
54 | CN1CC=C2C(C#N)=C(N)C(C#N)(C#N)C(c3cccc(Cl)c3Cl)C2C1 (stereo unspecified) | 1.44 µM | 7.33
55 | COc1ccc2c(C=Nc3c(C)n(C)n(-c4ccccc4)c3=O)c(O)n(Cc3ccco3)c(=O)c2c1 | 4.28 µM | 3.39
56 | O=c1[nH]c(Nc2ccccc2)cc2ccccc12 | 2.02 µM | 2.34
57 | CN(C)CCCN1C(=O)c2cccc3c([N+](=O)[O-])ccc(c23)C1=O | 18 µM | 2.14
58 | Cc1ccccc1C(=O)Nc1ccc2c(C#N)c3nc4ccccc4nc3n2c1 | 13.7 µM | 0.993
59 | CN1C(=O)/C(=C\N2CCc3ccccc32)C(=O)NC1=S | > 54 µM (inactive) | 1.14
60 | CN(CCC#N)C(=O)COC(=O)c1c2c(nc3ccccc13)/C(=C/c1ccco1)CC2 | 3.18 µM | 2.86
61 | CN1CCC2(CC1)C1CN(C)CC=C1C(C#N)=C(N)C2(C#N)C#N (stereo unspecified) | 2.49 µM | 7.69
62 | O=C1/C(=C/c2ccco2)SC(=S)N1c1cccnc1 | > 54 µM (inactive) | 1.09
63 | CSc1c(C#N)c(N)nc2sc(C(=O)c3ccc(Cl)c(Cl)c3)c(N)c12 | 1.74 µM | 9.22

Row | SMILES | IC50 | fold change
64 | Cc1ccc2cc(C=C(C#N)C#N)c(N3CCCCC3)nc2c1 | 2.98 µM | 24
65 | N=c1oc2ccc3ccccc3c2cc1-c1nc(-c2ccccc2)cs1 | 4.67 µM | 8.37
66 | CC(=O)c1ccc(NC(=O)CSc2ccsc2[N+](=O)[O-])cc1 | > 54 µM (inactive) | 1.06
67 | COc1ccc2nc(N3CCCC(O)C3)c(C#N)cc2c1 (stereo unspecified) | 14.6 µM | 2.78
68 | CCOc1ccc(N=C2NC(=O)S/C2=C\c2ccc(N(C)C)cc2)cc1 | 5.8 µM | 8.81
69 | Cn1c(SCC(=O)Nc2ccc3nc(SCC(=O)N4CCCC4)sc3c2)nnc1-c1ccc(N)cc1 | 36.4 µM (inactive) | 1.12
70 | CC(=O)NC1C(OCCOc2ccc(Cl)cc2Cl)OC(COC(C)=O)C(OC(C)=O)C1OC(C)=O (stereo unspecified) | > 54 µM (inactive) | 1.04
71 | O=S(=O)(Nc1cc2nc3ccccc3nc2n1Cc1ccccc1)c1ccc(Cl)cc1 | 2.89 µM | 13
72 | Nc1c(C(=O)NCC2CCCO2)sc2nc3c(c(-c4ccco4)c12)CC/C3=C\c1ccco1 (stereo unspecified) | < 0.42 µM | 3.22
73 | Cc1cc(=O)oc2cc(OCC(=O)N/N=C/c3cc([N+](=O)[O-])ccc3O)ccc12 | 4.65 µM | 1
74 | CCOC(=O)N1CCC(Nc2nc3ccccc3nc2NS(=O)(=O)c2ccc(Cl)cc2)CC1 | > 54 µM (inactive) | 1.39
75 | O=c1ccc2cc3c4c(c2o1)CCCN4CCC3 | < 0.42 µM | 36.4
76 | Cn1cc(Cl)c(C(=O)Nc2nc3ccc([N+](=O)[O-])cc3s2)n1 | > 54 µM (inactive) | 0.983
77 | O=C1Nc2cc(Cl)cnc2N2CCCC12 (stereo unspecified) | > 54 µM (inactive) | 1.68
78 | Cc1cccc2cc3c(N)c(C(=O)N4CCCc5ccccc54)sc3nc12 | 9.62 µM | 4.66
79 | N#C/C(=C\C1=C(N2CCOCC2)C(=C\c2ccc(Cl)cc2)/CC1)C(=O)Nc1ccccc1F | 3.43 µM | 4.49
80 | Nc1nnc(-c2cc3c(ccc4ccccc43)oc2=O)s1 | < 0.42 µM | 2.34
81 | c1ccc(-c2cn3nc(-c4ccccc4)c(-c4ccccc4)nc3n2)cc1 | 0.78 µM | 21.2
